Measurements taken from ChEMBL document CHEMBL5360554, “Optimization of the C2 substituents on the 1,4-bis(arylsulfonamido)naphthalene-N,N'-diacetic acid scaffold for better inhibition of Keap1-Nrf2 protein-protein interaction” (Eur J Med Chem, 2023).
Active and inactive are the calls of the source. The rule behind the calls is not given here.

Legend:
[1] = target: T1, Keap1/Nrf2 (Homo sapiens) (UniProt Q16236+Q14145); assay: Inhibition of Keap1-Nrf2 protein-protein interaction in human NCM460D cells assessed as fold increase in NQO1 gene expression at 10 uM by RT-qPCR analysis; type: cell-based
T1 sequence (Q14145 whole entry, looked up): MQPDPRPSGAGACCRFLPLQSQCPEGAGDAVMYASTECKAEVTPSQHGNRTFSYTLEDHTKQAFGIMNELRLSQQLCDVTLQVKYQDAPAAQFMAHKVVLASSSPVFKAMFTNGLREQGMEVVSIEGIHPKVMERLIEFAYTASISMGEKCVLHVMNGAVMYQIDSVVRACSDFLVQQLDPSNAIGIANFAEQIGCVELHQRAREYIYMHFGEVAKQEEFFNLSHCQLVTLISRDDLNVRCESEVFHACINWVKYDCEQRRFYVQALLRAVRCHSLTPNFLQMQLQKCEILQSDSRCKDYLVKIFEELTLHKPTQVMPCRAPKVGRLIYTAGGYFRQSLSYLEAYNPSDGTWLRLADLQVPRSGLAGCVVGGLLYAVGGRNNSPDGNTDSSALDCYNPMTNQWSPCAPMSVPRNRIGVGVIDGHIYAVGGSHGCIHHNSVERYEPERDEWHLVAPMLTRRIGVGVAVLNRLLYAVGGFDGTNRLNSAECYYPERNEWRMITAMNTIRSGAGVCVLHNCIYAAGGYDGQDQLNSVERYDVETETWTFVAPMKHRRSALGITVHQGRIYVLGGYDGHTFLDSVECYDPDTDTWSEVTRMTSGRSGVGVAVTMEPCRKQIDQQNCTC
T1 sequence (Q16236 whole entry, looked up): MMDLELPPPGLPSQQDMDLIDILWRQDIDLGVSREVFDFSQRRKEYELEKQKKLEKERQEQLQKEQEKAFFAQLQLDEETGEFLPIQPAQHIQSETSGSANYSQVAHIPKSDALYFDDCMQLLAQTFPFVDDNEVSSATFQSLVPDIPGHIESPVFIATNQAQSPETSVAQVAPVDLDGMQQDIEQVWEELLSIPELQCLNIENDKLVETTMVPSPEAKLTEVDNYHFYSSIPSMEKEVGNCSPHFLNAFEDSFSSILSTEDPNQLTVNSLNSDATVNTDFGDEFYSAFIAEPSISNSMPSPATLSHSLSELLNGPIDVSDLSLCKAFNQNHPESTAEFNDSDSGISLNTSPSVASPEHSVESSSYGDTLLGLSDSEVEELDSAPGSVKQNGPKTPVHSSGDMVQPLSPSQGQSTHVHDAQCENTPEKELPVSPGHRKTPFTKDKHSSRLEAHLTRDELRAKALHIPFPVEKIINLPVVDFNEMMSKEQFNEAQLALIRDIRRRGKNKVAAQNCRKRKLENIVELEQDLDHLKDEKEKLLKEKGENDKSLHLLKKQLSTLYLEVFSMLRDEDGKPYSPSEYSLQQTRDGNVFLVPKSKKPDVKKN

[2] = target: T1, Keap1/Nrf2 (Homo sapiens); assay: Inhibition of Keap1-Nrf2 protein-protein interaction in human NCM460D cells assessed as increase in NQO1 gene expression at 100 uM by RT-qPCR analysis; type: cell-based
[3] = target: T1, Keap1/Nrf2 (Homo sapiens); assay: Inhibition of Keap1-Nrf2 protein-protein interaction in human NCM460D cells assessed as fold increase in HMOX1 gene expression at 10 uM by RT-qPCR analysis; type: cell-based
[4] = target: T2, Keap1/Nrf2 (Homo sapiens, UniProt Q14145); assay: Inhibition of Keap1-Nrf2 protein-protein interaction (unknown origin) incubated for 34 mins by fluorescence polarization assay
T2 sequence (Q16236 whole entry): as the sequence (Q16236 whole entry, looked up) above
T2 sequence (Q14145 whole entry): as the sequence (Q14145 whole entry, looked up) above

[5] = target: T1, Keap1/Nrf2 (Homo sapiens); assay: Inhibition of Keap1-Nrf2 protein-protein interaction in human NCM460D cells assessed as increase in HMOX1 gene expression at 100 uM by RT-qPCR analysis; type: cell-based
[6] = target: T1, Keap1/Nrf2 (Homo sapiens); assay: Inhibition of Keap1-Nrf2 protein-protein interaction in human NCM460D cells assessed as fold increase in GSTM3 gene expression at 10 uM by RT-qPCR analysis; type: cell-based
[7] = target: T2, Keap1/Nrf2; assay: Inhibition of Keap1-Nrf2 protein-protein interaction (unknown origin) preincubated for 30 mins followed by Terbium labeled anti-His antibody addition for 30 mins prior to fluorescein labeled-9mer Nrf2 peptide addition and measured after 60 mins by TR-FRET assay
[8] = target: T1, Keap1/Nrf2 (Homo sapiens); assay: Inhibition of Keap1-Nrf2 protein-protein interaction in human NCM460D cells assessed as increase in GSTM3 gene expression at 100 uM by RT-qPCR analysis; type: cell-based
[9] = target: T1, Keap1/Nrf2 (Homo sapiens); assay: Inhibition of Keap1-Nrf2 protein-protein interaction in human NCM460D cells assessed as fold increase in GSTM3 gene expression at 100 uM by RT-qPCR analysis; type: cell-based
[10] = target: T1, Keap1/Nrf2 (Homo sapiens); assay: Inhibition of Keap1-Nrf2 protein-protein interaction in human NCM460D cells assessed as fold increase in NQO1 gene expression at 100 uM by RT-qPCR analysis; type: cell-based
[11] = target: T1, Keap1/Nrf2 (Homo sapiens); assay: Inhibition of Keap1-Nrf2 protein-protein interaction in human NCM460D cells assessed as fold increase in HMOX1 gene expression at 100 uM by RT-qPCR analysis; type: cell-based

Structure (SMILES)	fold change (FC) [1]	inhibition [2]	fold change (FC) [3]	IC50 [4]	HMOX1 gene expression increase (active/not active) [5]	fold change (FC) [6]	IC50 [7]	Ki [7]	inhibition [8]	fold change (FC) [9]	fold change (FC) [10]	fold change (FC) [11]
COc1ccc(S(=O)(=O)N(CC(=O)O)c2cc(-c3ccc(N4C(=O)c5ccccc5C4=O)cc3)c(N(CC(=O)O)S(=O)(=O)c3ccc(OC)cc3)c3ccccc23)cc1	3	Active	3	0.09 µM	Active	3	0.0071 µM	0.0021 µM	Active	–	–	–
COc1ccc(S(=O)(=O)N(CC(=O)O)c2cc(CCC(=O)NC(C)C)c(N(CC(=O)O)S(=O)(=O)c3ccc(OC)cc3)c3ccccc23)cc1	–	–	–	0.102 µM	–	–	0.0126 µM	0.0046 µM	–	–	–	–
COc1ccc(S(=O)(=O)N(CC(=O)O)c2cc(CCCN(C)Cc3ccccc3)c(N(CC(=O)O)S(=O)(=O)c3ccc(OC)cc3)c3ccccc23)cc1	–	–	–	–	–	–	0.0736 µM	0.0329 µM	–	–	–	–
COc1ccc(S(=O)(=O)N(CC(=O)O)c2cc(-c3ccccc3)c(N(CC(=O)O)S(=O)(=O)c3ccc(OC)cc3)c3ccccc23)cc1	–	–	–	0.096 µM	–	–	0.0077 µM	0.0024 µM	–	–	–	–
COc1ccc(S(=O)(=O)N(CC(N)=O)c2cc(CCC(=O)O)c(N(CC(N)=O)S(=O)(=O)c3ccc(OC)cc3)c3ccccc23)cc1	–	–	–	0.162 µM	–	–	0.0227 µM	0.0093 µM	–	–	–	–
COc1ccc(S(=O)(=O)N(CC(=O)O)c2cc(CCCN3C(=O)c4ccccc4C3=O)c(N(CC(=O)O)S(=O)(=O)c3ccc(OC)cc3)c3ccccc23)cc1	3	Active	3	0.077 µM	Active	3	0.0025 µM	< 0.0001 µM	Active	–	–	–
COc1ccc(S(=O)(=O)N(CC(=O)O)c2cc(CCC(=O)N3CCOCC3)c(N(CC(=O)O)S(=O)(=O)c3ccc(OC)cc3)c3ccccc23)cc1	–	Active	–	0.087 µM	Active	–	0.0069 µM	0.002 µM	Active	–	–	–
COc1ccc(S(=O)(=O)N(CC(=O)O)c2cc(CCC(N)=O)c(N(CC(=O)O)S(=O)(=O)c3ccc(OC)cc3)c3ccccc23)cc1	–	–	–	0.108 µM	–	–	0.0117 µM	0.0042 µM	–	–	–	–
COc1ccc(-c2cc(N(CC(=O)O)S(=O)(=O)c3ccc(OC)cc3)c3ccccc3c2N(CC(=O)O)S(=O)(=O)c2ccc(OC)cc2)cc1	–	Active	–	0.085 µM	Active	–	0.0131 µM	0.0049 µM	Active	8	8	8
COc1ccc(S(=O)(=O)N(CC(=O)O)c2cc(-c3ccc(C#N)cc3)c(N(CC(=O)O)S(=O)(=O)c3ccc(OC)cc3)c3ccccc23)cc1	–	inactive	–	0.117 µM	inactive	–	0.0092 µM	0.0031 µM	inactive	–	–	–
COc1ccc(S(=O)(=O)N(CC(=O)O)c2cc(Sc3ccccc3)c(N(CC(=O)O)S(=O)(=O)c3ccc(OC)cc3)c3ccccc23)cc1	–	–	–	0.085 µM	–	–	0.0058 µM	0.0015 µM	–	–	–	–
